Where “and” joins values, the source holds several entries; their conditions need not be identical. Equal values may be shown once.
Tests used:
Assay in all cases: biochemical
Set-up in all cases: endogenous in cells; host or cells: K562 cell extract; species or system K562 (extract); replicate k of n = 2 (each experiment ID is one independent experiment; two experiment IDs per compound)
Conditions in all cases: read-out: KDapp
OXSR1 = OXSR1 (Homo sapiens, UniProt O95747)
TNK2 = TNK2 (Homo sapiens, UniProt Q07912)
PIK3C3 = PIK3C3 (Homo sapiens, UniProt Q8NEB9)
NEK3 = target: T1, NEK3 (Homo sapiens, UniProt P51956)
T1 sequence (P51956 1-506): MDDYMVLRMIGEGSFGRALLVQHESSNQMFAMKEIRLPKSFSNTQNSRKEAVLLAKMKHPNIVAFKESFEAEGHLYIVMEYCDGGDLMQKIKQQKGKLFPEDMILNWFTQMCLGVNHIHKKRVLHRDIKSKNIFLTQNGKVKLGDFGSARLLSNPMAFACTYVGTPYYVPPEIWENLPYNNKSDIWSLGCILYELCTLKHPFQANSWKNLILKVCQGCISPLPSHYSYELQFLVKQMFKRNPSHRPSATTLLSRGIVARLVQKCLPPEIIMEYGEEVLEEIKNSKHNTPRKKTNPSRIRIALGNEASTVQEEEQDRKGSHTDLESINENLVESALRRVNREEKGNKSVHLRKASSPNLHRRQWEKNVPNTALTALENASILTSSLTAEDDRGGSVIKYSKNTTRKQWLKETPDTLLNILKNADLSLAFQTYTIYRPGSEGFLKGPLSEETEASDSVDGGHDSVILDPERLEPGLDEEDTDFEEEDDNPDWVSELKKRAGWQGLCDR

NEK6 = NEK6 (Homo sapiens, UniProt Q9HC98)
STK38L = STK38L (Homo sapiens, UniProt Q9Y2H1)
CDK5 = CDK5 (Homo sapiens, UniProt Q00535)
TAOK3 = target: T2, TAOK3 (Homo sapiens, UniProt Q9H2K8)
T2 sequence (Q9H2K8 1-898): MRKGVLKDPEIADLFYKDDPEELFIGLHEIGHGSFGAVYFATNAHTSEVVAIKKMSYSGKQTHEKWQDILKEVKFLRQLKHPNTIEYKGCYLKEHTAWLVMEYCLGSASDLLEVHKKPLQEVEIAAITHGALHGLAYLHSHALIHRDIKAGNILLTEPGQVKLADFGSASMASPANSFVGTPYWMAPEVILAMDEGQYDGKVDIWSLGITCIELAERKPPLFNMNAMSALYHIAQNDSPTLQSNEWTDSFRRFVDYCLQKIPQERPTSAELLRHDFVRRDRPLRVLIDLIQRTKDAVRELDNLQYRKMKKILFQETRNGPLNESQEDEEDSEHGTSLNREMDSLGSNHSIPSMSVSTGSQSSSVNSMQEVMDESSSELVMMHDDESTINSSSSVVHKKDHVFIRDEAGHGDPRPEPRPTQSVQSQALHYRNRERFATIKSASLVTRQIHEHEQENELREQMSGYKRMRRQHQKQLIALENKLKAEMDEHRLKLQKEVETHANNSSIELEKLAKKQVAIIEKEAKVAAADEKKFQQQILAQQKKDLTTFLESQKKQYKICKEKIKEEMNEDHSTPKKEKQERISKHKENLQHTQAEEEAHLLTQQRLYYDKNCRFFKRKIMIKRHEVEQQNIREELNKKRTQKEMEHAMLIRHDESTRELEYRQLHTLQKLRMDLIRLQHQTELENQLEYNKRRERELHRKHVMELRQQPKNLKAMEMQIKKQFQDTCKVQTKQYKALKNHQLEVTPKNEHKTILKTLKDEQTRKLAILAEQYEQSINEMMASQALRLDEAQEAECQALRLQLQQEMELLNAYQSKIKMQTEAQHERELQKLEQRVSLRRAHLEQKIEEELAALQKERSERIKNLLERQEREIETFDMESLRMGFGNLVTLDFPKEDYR

Chain of OXSR1 (O95747 whole entry): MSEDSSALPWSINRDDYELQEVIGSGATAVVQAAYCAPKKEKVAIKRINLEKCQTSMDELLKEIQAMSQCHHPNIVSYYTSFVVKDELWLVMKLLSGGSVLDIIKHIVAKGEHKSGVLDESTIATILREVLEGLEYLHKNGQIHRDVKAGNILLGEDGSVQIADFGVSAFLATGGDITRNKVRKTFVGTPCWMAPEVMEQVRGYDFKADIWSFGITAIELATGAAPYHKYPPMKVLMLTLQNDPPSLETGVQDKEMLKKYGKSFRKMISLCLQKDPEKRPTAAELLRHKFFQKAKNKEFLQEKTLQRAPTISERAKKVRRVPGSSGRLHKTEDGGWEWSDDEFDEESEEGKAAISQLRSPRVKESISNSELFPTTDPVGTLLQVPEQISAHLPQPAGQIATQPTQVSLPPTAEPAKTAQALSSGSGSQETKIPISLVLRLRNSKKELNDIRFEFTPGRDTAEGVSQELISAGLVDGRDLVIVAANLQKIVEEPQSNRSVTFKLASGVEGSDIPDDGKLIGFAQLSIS
Chain of CDK5 (Q00535 whole entry): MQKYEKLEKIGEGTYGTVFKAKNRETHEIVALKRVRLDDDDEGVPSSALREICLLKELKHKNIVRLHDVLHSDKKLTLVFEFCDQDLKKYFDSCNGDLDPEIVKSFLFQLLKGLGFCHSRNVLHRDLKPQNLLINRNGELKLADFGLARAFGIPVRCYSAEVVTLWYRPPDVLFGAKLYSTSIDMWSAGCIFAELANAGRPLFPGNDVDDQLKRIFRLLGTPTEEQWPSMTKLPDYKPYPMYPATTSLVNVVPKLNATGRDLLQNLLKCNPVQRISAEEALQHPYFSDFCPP
Chain of STK38L (Q9Y2H1 whole entry): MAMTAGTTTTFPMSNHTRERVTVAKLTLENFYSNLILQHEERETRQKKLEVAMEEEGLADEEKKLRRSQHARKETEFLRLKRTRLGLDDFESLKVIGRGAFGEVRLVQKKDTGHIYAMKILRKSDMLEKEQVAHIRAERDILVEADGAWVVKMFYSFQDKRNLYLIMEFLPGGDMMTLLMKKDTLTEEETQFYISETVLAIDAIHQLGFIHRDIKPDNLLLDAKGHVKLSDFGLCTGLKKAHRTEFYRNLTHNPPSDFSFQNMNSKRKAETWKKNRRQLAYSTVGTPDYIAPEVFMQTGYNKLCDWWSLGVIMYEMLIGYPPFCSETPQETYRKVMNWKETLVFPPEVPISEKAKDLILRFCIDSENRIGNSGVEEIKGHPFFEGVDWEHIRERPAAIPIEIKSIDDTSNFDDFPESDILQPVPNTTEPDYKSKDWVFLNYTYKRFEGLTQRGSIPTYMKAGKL
Chain of TNK2 (Q07912 whole entry): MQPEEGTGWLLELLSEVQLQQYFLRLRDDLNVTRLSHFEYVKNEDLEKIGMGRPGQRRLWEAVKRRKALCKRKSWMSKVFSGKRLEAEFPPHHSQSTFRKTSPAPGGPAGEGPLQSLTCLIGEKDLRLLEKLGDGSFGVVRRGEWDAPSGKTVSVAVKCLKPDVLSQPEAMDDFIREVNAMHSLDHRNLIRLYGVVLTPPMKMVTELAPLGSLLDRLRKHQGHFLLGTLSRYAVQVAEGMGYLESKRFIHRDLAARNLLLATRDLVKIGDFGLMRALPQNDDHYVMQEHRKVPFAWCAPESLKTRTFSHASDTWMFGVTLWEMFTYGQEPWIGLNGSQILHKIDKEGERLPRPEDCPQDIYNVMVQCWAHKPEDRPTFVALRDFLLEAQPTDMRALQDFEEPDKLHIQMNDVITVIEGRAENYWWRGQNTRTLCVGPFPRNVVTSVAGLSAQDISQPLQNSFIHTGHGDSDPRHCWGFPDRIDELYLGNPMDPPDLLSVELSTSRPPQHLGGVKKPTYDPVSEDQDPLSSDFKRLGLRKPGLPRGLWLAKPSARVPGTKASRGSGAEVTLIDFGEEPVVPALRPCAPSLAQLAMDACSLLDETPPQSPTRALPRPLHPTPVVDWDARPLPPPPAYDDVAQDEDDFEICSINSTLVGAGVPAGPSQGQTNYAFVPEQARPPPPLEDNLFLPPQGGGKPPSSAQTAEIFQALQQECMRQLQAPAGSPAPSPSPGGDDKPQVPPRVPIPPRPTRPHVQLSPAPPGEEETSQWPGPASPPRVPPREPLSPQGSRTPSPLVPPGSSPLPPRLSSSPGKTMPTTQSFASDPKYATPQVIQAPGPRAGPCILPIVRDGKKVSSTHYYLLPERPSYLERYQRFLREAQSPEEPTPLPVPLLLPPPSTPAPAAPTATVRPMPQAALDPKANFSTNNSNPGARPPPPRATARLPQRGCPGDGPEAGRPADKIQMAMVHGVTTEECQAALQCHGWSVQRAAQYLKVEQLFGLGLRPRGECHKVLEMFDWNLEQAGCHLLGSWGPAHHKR
Chain of PIK3C3 (Q8NEB9 whole entry): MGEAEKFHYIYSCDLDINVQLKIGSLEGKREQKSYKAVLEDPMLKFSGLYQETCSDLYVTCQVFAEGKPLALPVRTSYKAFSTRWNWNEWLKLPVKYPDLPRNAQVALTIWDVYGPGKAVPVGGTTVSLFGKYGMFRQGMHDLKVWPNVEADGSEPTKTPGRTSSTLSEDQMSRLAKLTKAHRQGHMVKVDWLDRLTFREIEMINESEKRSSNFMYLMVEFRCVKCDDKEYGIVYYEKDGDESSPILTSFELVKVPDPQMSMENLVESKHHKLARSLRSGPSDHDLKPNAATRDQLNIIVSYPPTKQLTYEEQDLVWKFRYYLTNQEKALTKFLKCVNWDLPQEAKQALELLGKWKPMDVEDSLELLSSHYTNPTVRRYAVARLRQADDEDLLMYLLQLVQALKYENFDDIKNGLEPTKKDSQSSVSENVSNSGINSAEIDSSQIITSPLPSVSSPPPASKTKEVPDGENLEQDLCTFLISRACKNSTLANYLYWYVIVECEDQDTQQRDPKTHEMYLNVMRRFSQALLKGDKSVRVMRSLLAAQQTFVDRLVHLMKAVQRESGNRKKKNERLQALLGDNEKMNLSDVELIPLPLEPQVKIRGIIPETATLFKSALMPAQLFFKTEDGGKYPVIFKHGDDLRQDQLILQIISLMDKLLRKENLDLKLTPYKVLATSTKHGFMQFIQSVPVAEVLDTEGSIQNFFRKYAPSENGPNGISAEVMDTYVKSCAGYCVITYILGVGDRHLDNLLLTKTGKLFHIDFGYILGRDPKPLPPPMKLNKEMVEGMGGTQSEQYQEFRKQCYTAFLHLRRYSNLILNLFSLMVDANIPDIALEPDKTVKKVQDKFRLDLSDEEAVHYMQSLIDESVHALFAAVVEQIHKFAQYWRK
Chain of NEK6 (Q9HC98 whole entry): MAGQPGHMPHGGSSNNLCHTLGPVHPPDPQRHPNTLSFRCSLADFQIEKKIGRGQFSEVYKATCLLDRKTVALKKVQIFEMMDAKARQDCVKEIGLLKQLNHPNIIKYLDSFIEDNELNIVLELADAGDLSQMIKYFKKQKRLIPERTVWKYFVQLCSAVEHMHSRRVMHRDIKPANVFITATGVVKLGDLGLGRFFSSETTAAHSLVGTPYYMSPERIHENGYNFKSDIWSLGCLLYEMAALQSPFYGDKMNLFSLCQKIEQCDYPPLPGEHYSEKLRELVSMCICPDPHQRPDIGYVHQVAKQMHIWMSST

| Compound | Kd (OXSR1) | Kd (TNK2) | Kd (PIK3C3) | Kd (NEK3) | Kd (NEK6) | Kd (STK38L) | Kd (CDK5) | Kd (TAOK3) |
| --- | --- | --- | --- | --- | --- | --- | --- | --- |
| CN1CCN(c2ccc(Nc3ncc(C#N)c(Nc4ccccc4C(N)=O)n3)cc2)CC1.Cl [TCMDC-134116] | 73 nM and 117 nM | 73.5 nM | 957 nM | 717 nM | 160 nM | 571 nM | 40.5 nM and 66.5 nM | – |
| Cl.NCC1(c2nc(-c3ccc(Cl)c(O)c3)c(-c3ccncc3)[nH]2)CCCCC1 [TCMDC-141154] | – | – | – | – | – | – | – | 1190 nM and 603 nM |
